# Assay: Study 202 fasting metabolic laboratory parameters
# Format: in vivo, human
# Description: All abnormalities in total cholesterol, LDL cholesterol, triglycerides, or glucose were Grade 1 or Grade 2.
# Mean baseline values and changes from baseline in HbA1c, HOMA-IR, fasting LDL, fasting HDL, fasting total cholesterol, fasting total cholesterol/HDL ratio, and fasting triglycerides are shown in Table 36.
# [1] = CVC 100 mg (N = 58), through Week 48
# [2] = CVC 200 mg (N = 57), through Week 48
compound,measurement,setting,value
"CCCCOCCOc1ccc(-c2ccc3c(c2)/C=C(/C(=O)Nc2ccc([S@@+]([O-])Cc4cncn4CCC)cc2)CCCN3CC(C)C)cc1 [CVC, (S)-8-[4-(2-Butoxyethoxy)phenyl]-1-isobutyl-N-(4-{[(1-propyl-1H-imidazol-5-yl)methyl]sulfinyl}phenyl)-1,2,3,4-tetrahydro-1-benzazocine-5-carboxamide]","HbA1c, mean change from baseline","All CVC, EFV, Week 4",−0.03 % Hb
same,"HbA1c, mean change from baseline","All CVC, EFV, Week 12",−0.06 % Hb
same,"HbA1c, mean change from baseline","All CVC, EFV, Week 24",0.06 % Hb
same,"HbA1c, mean change from baseline","All CVC, EFV, Week 48",0.10 % Hb
same,"Any fasting laboratory abnormality, worst Grade 1",[1],3 (5%) n (%)
same,"Any fasting laboratory abnormality, worst Grade 2",[1],1 (2%) n (%)
same,"Any fasting laboratory abnormality, worst Grade 3",[1],0 n (%)
same,"Any fasting laboratory abnormality, worst Grade 4",[1],0 n (%)
same,Any graded (Grade 1-4) fasting laboratory abnormality,[1],4 (7%) n (%)
same,"Fasting LDL cholesterol abnormality, Grade 1",[1],1 (2%) n (%)
same,"Fasting LDL cholesterol abnormality, Grade 2",[1],1 (2%) n (%)
same,"Fasting LDL cholesterol abnormality, Grade 3",[1],0 n (%)
same,"Fasting LDL cholesterol abnormality, Grade 4",[1],0 n (%)
same,"Fasting LDL cholesterol abnormality, any grade",[1],2 (3%) n (%)
same,"Fasting glucose (serum, high) abnormality, Grade 1",[1],0 n (%)
same,"Fasting glucose (serum, high) abnormality, Grade 2",[1],0 n (%)
same,"Fasting glucose (serum, high) abnormality, Grade 3",[1],0 n (%)
same,"Fasting glucose (serum, high) abnormality, Grade 4",[1],0 n (%)
same,"Fasting glucose (serum, high) abnormality, any grade",[1],0 n (%)
same,"Fasting total cholesterol abnormality, Grade 1",[1],3 (5%) n (%)
same,"Fasting total cholesterol abnormality, Grade 2",[1],0 n (%)
same,"Fasting total cholesterol abnormality, Grade 3",[1],0 n (%)
same,"Fasting total cholesterol abnormality, Grade 4",[1],0 n (%)
same,"Fasting total cholesterol abnormality, any grade",[1],3 (5%) n (%)
same,"Fasting triglycerides abnormality, Grade 1",[1],0 n (%)
same,"Fasting triglycerides abnormality, Grade 2",[1],0 n (%)
same,"Fasting triglycerides abnormality, Grade 3",[1],0 n (%)
same,"Fasting triglycerides abnormality, Grade 4",[1],0 n (%)
same,"Fasting triglycerides abnormality, any grade",[1],0 n (%)
same,change in fasting total cholesterol (mainly LDL cholesterol),"CVC 100 mg and 200 mg, through Week 48",decrease
same,"Fasting triglycerides, mean change from baseline","CVC 100 mg, Week 4",-8 mg/dL
same,"HbA1c, mean change from baseline","CVC 100 mg, Week 4",0.01 % Hb
same,"HbA1c, mean change from baseline","CVC 100 mg, Week 12",−0.04 % Hb
same,"Fasting triglycerides, mean change from baseline","CVC 100 mg, Week 24",-8 mg/dL
same,"HbA1c, mean change from baseline","CVC 100 mg, Week 24",0.06 % Hb
same,"HbA1c, mean change from baseline","CVC 100 mg, Week 48",0.09 % Hb
same,"Any fasting laboratory abnormality, worst Grade 1",[2],6 (11%) n (%)
same,"Any fasting laboratory abnormality, worst Grade 2",[2],6 (11%) n (%)
same,"Any fasting laboratory abnormality, worst Grade 3",[2],0 n (%)
same,"Any fasting laboratory abnormality, worst Grade 4",[2],0 n (%)
same,Any graded (Grade 1-4) fasting laboratory abnormality,[2],12 (21%) n (%)
same,"Fasting LDL cholesterol abnormality, Grade 1",[2],2 (4%) n (%)
same,"Fasting LDL cholesterol abnormality, Grade 2",[2],2 (4%) n (%)
same,"Fasting LDL cholesterol abnormality, Grade 3",[2],0 n (%)
same,"Fasting LDL cholesterol abnormality, Grade 4",[2],0 n (%)
same,"Fasting LDL cholesterol abnormality, any grade",[2],4 (7%) n (%)
same,"Fasting glucose (serum, high) abnormality, Grade 1",[2],3 (5%) n (%)
same,"Fasting glucose (serum, high) abnormality, Grade 2",[2],2 (4%) n (%)
same,"Fasting glucose (serum, high) abnormality, Grade 3",[2],0 n (%)
same,"Fasting glucose (serum, high) abnormality, Grade 4",[2],0 n (%)
same,"Fasting glucose (serum, high) abnormality, any grade",[2],5 (9%) n (%)
same,"Fasting total cholesterol abnormality, Grade 1",[2],2 (4%) n (%)
same,"Fasting total cholesterol abnormality, Grade 2",[2],3 (5%) n (%)
same,"Fasting total cholesterol abnormality, Grade 3",[2],0 n (%)
same,"Fasting total cholesterol abnormality, Grade 4",[2],0 n (%)
same,"Fasting total cholesterol abnormality, any grade",[2],5 (9%) n (%)
same,"Fasting triglycerides abnormality, Grade 1",[2],0 n (%)
same,"Fasting triglycerides abnormality, Grade 2",[2],1 (2%) n (%)
same,"Fasting triglycerides abnormality, Grade 3",[2],0 n (%)
same,"Fasting triglycerides abnormality, Grade 4",[2],0 n (%)
same,"Fasting triglycerides abnormality, any grade",[2],1 (2%) n (%)
same,"Fasting triglycerides, mean change from baseline","CVC 200 mg, Week 4",-2 mg/dL
same,"HbA1c, mean change from baseline","CVC 200 mg, Week 4",−0.08 % Hb
same,"HbA1c, mean change from baseline","CVC 200 mg, Week 12",−0.08 % Hb
same,"HbA1c, mean change from baseline","CVC 200 mg, Week 24",0.06 % Hb
same,"Fasting total cholesterol, mean change from baseline","CVC 200 mg, Week 48",-9 mg/dL
same,"HbA1c, mean change from baseline","CVC 200 mg, Week 48",0.10 % Hb

# Reference: US20200368247A1, “CENICRIVIROC FOR THE TREATMENT OF FIBROSIS” (Tobira Therapeutics, Inc., priority 2014, published 2020)
